Values after ≈ are worked out from the molar mass of the structure shown.
Legend:
Experiment in all cases: In vitro antibacterial evaluation: minimum inhibitory concentration (MIC), broth dilution method
Format in all cases: cell-based
Enterococcus sp. = details: 18 hours at 35° C.
Protocol: (§1) The minimum inhibitory concentration (MIC), the lowest concentration of the antibiotic which inhibits growth of the test organism, is determined by the broth dilution method using Muller-Hinton II […] (Baltimore Biological Laboratories) following the recommendations of the National Committee for Clinical Laboratory Standards [Methods for dilution antimicrobial susceptibility tests for bacteria that grow aerobically, approved standard M7-A2, National Committee for Clinical Laboratory Standards, Villanova, Pa].
(§2) An inoculum level of 5×10^5 CFU/mL, and a range of antibiotic concentrations (64-0.06 μg/mL) is used. […] The test organisms include a spectrum of Gram-positive bacteria comprised of Staphylococcus sp., Streptococcus sp. and Enterococcus sp. These organisms include recent clinical isolates that are resistant to methicillin, penicillin and/or vancomycin.

Escherichia coli = details: 18 hours at 35° C.
Protocol: as §1, §2

Staphylococcus sp. = details: for MIC Staphylococcus aureus (ATCC 29213): strain ATCC 29213; for MIC Staphylococcus aureus (GC 1131): strain GC 1131; for MIC Staphylococcus aureus (GC 3051): strain GC 3051; for MIC Staphylococcus aureus (GC 3053): strain GC 3053; for MIC Staphylococcus aureus (GC 4541): strain GC 4541; for MIC Staphylococcus aureus (GC 4542): strain GC 4542; for MIC Staphylococcus aureus (GC 4544): strain GC 4544; for MIC Staphylococcus aureus (GC 4545): strain GC 4545
Protocol: as §1, §2

Streptococcus sp. = details: 18 hours at 35° C.
Protocol: as §1, §2

[1] = broth dilution, inoculum 5×10^5 CFU/mL
[2] = broth dilution, 5×10^5 CFU/mL, 18 hours at 35° C.
[3] = broth dilution, 18 hours at 35° C.

Compound: COc1ccc2cc(COC3C(OC4C(CO)OC(Oc5ccc(CC6NC(=O)C(C(C)c7ccccc7)NC(=O)CNC(=O)C(CO)NC(=O)C(CC7CNC(=N)N7C7OC(CO)C(O)C(O)C7O)NC(=O)C(CC7CNC(=N)N7)NC6=O)cc5)C(O)C4O)OC(CO)C(O)C3O)ccc2c1 (stereo not drawn) [Example 245c, Cyclo[3-(2-iminoimidazolidin-4-yl)alanyl-3-(3-hexopyranosyl-2-iminoimidazolidin-4-yl)-alanylserylglycyl-62-methylphenylalanyl-O-[4-O-[2-O-[(6-methoxy-2-naphthyl)methyl]-hexopyranosyl]hexopyranosyl]tyrosyl]]
- MIC Enterococcus faecium (GC 4557) (Enterococcus sp.; Enterococcus faecium (GC 4557)): 64 µg/mL (≈ 44.6 µM)
- MIC Escherichia coli (GC 4560) (Escherichia coli; Escherichia coli (GC 4560)): 32 µg/mL (≈ 22.3 µM)
- MIC Coagulase Negative Staphylococcus (GC 4549) (Staphylococcus sp.; Coagulase Negative Staphylococcus (GC 4549), 18 hours at 35° C.): 64 µg/mL (≈ 44.6 µM)
- MIC Coagulase Negative Staphylococcus (GC 6257) (Staphylococcus sp.; Coagulase Negative Staphylococcus (GC 6257), 18 hours at 35° C.): 64 µg/mL (≈ 44.6 µM)
- MIC Streptococcus pneumoniae (ATCC 6301) (Streptococcus sp.; Streptococcus pneumoniae (ATCC 6301)): 64 µg/mL (≈ 44.6 µM)
- MIC Streptococcus pneumoniae (GC 1894) (Streptococcus sp.; Streptococcus pneumoniae (GC 1894)): 32 µg/mL (≈ 22.3 µM)
- MIC Streptococcus pneumoniae (GC 4565) (Streptococcus sp.; Streptococcus pneumoniae (GC 4565)): 64 µg/mL (≈ 44.6 µM)
- MIC Streptococcus pneumoniae (ATCC 6301) (Streptococcus sp.; [1]): 64 µg/mL (≈ 44.6 µM)
- MIC Streptococcus pneumoniae (GC 1894) (Streptococcus sp.; [1]): 32 µg/mL (≈ 22.3 µM)
- MIC Streptococcus pneumoniae (GC 4565) (Streptococcus sp.; [1]): 64 µg/mL (≈ 44.6 µM)

Compound: CC(c1ccccc1)C1NC(=O)CNC(=O)C(CO)NC(=O)C(C(O)C2CNC(=N)N2C2OC(CO)C(O)C(O)C2O)NC(=O)C(C(O)C2CNC(=N)N2)NC(=O)C(Cc2ccc(OC3OC(CO)C(OC4OC5COC(c6cccs6)OC5C(O)C4O)C(O)C3O)cc2)NC1=O (stereo not drawn) [Example 132, Cyclo[glycyl-β-methylphenylalanyl-O-[4-O-[4,6-O-(2-thienylmethylene)hexopyranosyl]-hexopyranosyl]tyrosyl-3-(2-iminoimidazolidin-4-yl)seryl-3-(3-hexopyranosyl-2-iminoimidazolidin-4-yl)serylseryl]]
- MIC Enterococccus avium (GC 4558) (Enterococcus sp.; broth dilution, 5×10^5 CFU/mL): 16 µg/mL (≈ 11.5 µM)
- MIC Enterococccus faecalis (ATCC 29212) (Enterococcus sp.; broth dilution, 5×10^5 CFU/mL): 8 µg/mL (≈ 5.76 µM)
- MIC Enterococccus faecalis (GC 2691) (Enterococcus sp.; broth dilution, 5×10^5 CFU/mL): 8 µg/mL (≈ 5.76 µM)
- MIC Enterococccus faecalis (GC 3059) (Enterococcus sp.; broth dilution, 5×10^5 CFU/mL): 16 µg/mL (≈ 11.5 µM)
- MIC Enterococccus faecalis (GC 4552) (Enterococcus sp.; broth dilution, 5×10^5 CFU/mL): 8 µg/mL (≈ 5.76 µM)
- MIC Enterococccus faecalis (GC 4553) (Enterococcus sp.; broth dilution, 5×10^5 CFU/mL): 16 µg/mL (≈ 11.5 µM)
- MIC Enterococccus faecalis (GC 4554) (Enterococcus sp.; broth dilution, 5×10^5 CFU/mL): 8 µg/mL (≈ 5.76 µM)
- MIC Enterococccus faecalis (GC 6189) (Enterococcus sp.; broth dilution, 5×10^5 CFU/mL): 8 µg/mL (≈ 5.76 µM)
- MIC Enterococccus faecium (GC 2243) (Enterococcus sp.; broth dilution, 5×10^5 CFU/mL): 8 µg/mL (≈ 5.76 µM)
- MIC Enterococccus faecium (GC 4556) (Enterococcus sp.; broth dilution, 5×10^5 CFU/mL): 8 µg/mL (≈ 5.76 µM)
- MIC Enterococccus faecium (GC 4557) (Enterococcus sp.; broth dilution, 5×10^5 CFU/mL): 4 µg/mL (≈ 2.88 µM)
- MIC Enterococcus faecalis (GC 2242) (Enterococcus sp.; broth dilution, 5×10^5 CFU/mL): 8 µg/mL (≈ 5.76 µM)
- MIC Escherichia coli (ATCC 25922) (Escherichia coli; 5×10^5 CFU/mL): >64 µg/mL
- MIC Escherichia coli (GC 4559) (Escherichia coli; 5×10^5 CFU/mL): 32 µg/mL (≈ 23 µM)
- MIC Escherichia coli (GC 4560) (Escherichia coli; 5×10^5 CFU/mL): 1 µg/mL (≈ 0.72 µM)
- MIC Coagulase Negative Staphylococcus (GC 4547) (Staphylococcus sp.; [2]): 2 µg/mL (≈ 1.44 µM)
- MIC Coagulase Negative Staphylococcus (GC 4548) (Staphylococcus sp.; [2]): 1 µg/mL (≈ 0.72 µM)
- MIC Coagulase Negative Staphylococcus (GC 4549) (Staphylococcus sp.; [2]): 1 µg/mL (≈ 0.72 µM)
- MIC Coagulase Negative Staphylococcus (GC 4551) (Staphylococcus sp.; [2]): 2 µg/mL (≈ 1.44 µM)
- MIC Coagulase Negative Staphylococcus (GC 6257) (Staphylococcus sp.; [2]): 1 µg/mL (≈ 0.72 µM)
- MIC Staphylococcus aureus-SMITH (GC 4543) (Staphylococcus sp.; [2]): 2 µg/mL (≈ 1.44 µM)
- MIC Staphylococcus haemolyticus (GC 4546) (Staphylococcus sp.; [2]): 1 µg/mL (≈ 0.72 µM)
- MIC Staphylococcus aureus (ATCC 29213) (Staphylococcus sp.): 4 µg/mL (≈ 2.88 µM)
- MIC Staphylococcus aureus (ATCC 29213) (Staphylococcus sp.; [3]): 4 µg/mL (≈ 2.88 µM)
- MIC Staphylococcus aureus (GC 1131) (Staphylococcus sp.): 2 µg/mL (≈ 1.44 µM)
- MIC Staphylococcus aureus (GC 1131) (Staphylococcus sp.; [3]): 2 µg/mL (≈ 1.44 µM)
- MIC Staphylococcus aureus (GC 3051) (Staphylococcus sp.): 2 µg/mL (≈ 1.44 µM)
- MIC Staphylococcus aureus (GC 3051) (Staphylococcus sp.; [3]): 2 µg/mL (≈ 1.44 µM)
- MIC Staphylococcus aureus (GC 3053) (Staphylococcus sp.): 4 µg/mL (≈ 2.88 µM)
- MIC Staphylococcus aureus (GC 3053) (Staphylococcus sp.; [3]): 4 µg/mL (≈ 2.88 µM)
- MIC Staphylococcus aureus (GC 4541) (Staphylococcus sp.): 2 µg/mL (≈ 1.44 µM)
- MIC Staphylococcus aureus (GC 4541) (Staphylococcus sp.; [3]): 2 µg/mL (≈ 1.44 µM)
- MIC Staphylococcus aureus (GC 4542) (Staphylococcus sp.): 2 µg/mL (≈ 1.44 µM)
- MIC Staphylococcus aureus (GC 4542) (Staphylococcus sp.; [3]): 2 µg/mL (≈ 1.44 µM)
- MIC Staphylococcus aureus-SMITH (GC 4543) (Staphylococcus sp.; strain GC 4543, broth dilution, 18 hours at 35° C.): 2 µg/mL (≈ 1.44 µM)
- MIC Staphylococcus aureus (GC 4544) (Staphylococcus sp.): 4 µg/mL (≈ 2.88 µM)
- MIC Staphylococcus aureus (GC 4544) (Staphylococcus sp.; [3]): 4 µg/mL (≈ 2.88 µM)
- MIC Staphylococcus aureus (GC 4545) (Staphylococcus sp.): 2 µg/mL (≈ 1.44 µM)
- MIC Staphylococcus aureus (GC 4545) (Staphylococcus sp.; [3]): 2 µg/mL (≈ 1.44 µM)
- MIC Staphylococcus haemolyticus (GC 4546) (Staphylococcus sp.; strain GC 4546, broth dilution, 18 hours at 35° C.): 1 µg/mL (≈ 0.72 µM)
- MIC Coagulase Negative Staphylococcus (GC 4547) (Staphylococcus sp.; strain GC 4547, broth dilution, 18 hours at 35° C.): 2 µg/mL (≈ 1.44 µM)
- MIC Coagulase Negative Staphylococcus (GC 4548) (Staphylococcus sp.; strain GC 4548, broth dilution, 18 hours at 35° C.): 1 µg/mL (≈ 0.72 µM)
- MIC Coagulase Negative Staphylococcus (GC 4549) (Staphylococcus sp.; strain GC 4549, broth dilution, 18 hours at 35° C.): 1 µg/mL (≈ 0.72 µM)
- MIC Coagulase Negative Staphylococcus (GC 4551) (Staphylococcus sp.; strain GC 4551, broth dilution, 18 hours at 35° C.): 2 µg/mL (≈ 1.44 µM)
- MIC Coagulase Negative Staphylococcus (GC 6257) (Staphylococcus sp.; strain GC 6257, broth dilution, 18 hours at 35° C.): 1 µg/mL (≈ 0.72 µM)
- MIC Streptococcus agalactiae (GC 4564) (Streptococcus sp.; broth dilution, 5×10^5 CFU/mL): 0.5 µg/mL (≈ 0.36 µM)
- MIC Streptococcus pneumoniae (GC 1894) (Streptococcus sp.; broth dilution, 5×10^5 CFU/mL): 0.12 µg/mL (≈ 0.0864 µM)
- MIC Streptococcus pneumoniae (GC 4565) (Streptococcus sp.; broth dilution, 5×10^5 CFU/mL): 0.25 µg/mL (≈ 0.18 µM)
- MIC Streptococcus pneumonine (ATCC 6301) (Streptococcus sp.; broth dilution, 5×10^5 CFU/mL): 0.25 µg/mL (≈ 0.18 µM)
- MIC Streptococcus pyogenes (GC 4563) (Streptococcus sp.; broth dilution, 5×10^5 CFU/mL): 0.5 µg/mL (≈ 0.36 µM)

From patent publication US8247211B2, “Glycopeptide antibiotics” (American Cyanamid Company, priority 2001, dated 2012)
